“Also recorded” adds a separate entry of the source.
Experiments:
[1] = system: p53; assay: Western blot of p53 serine-15 phosphorylation; format: cell-based; details: A549, western blot
Protocol: Real-Time PCR—A549 cells were plated in 10 cm dishes at 1.5×10^6, allowed to adhere, and treated for 24-48 hours with cisplatin or SMIs (5 μM). Referring now to FIG. 16B, Western blot of cells treated sequentially. For sequential treatment, A549 cells were exposed to cisplatin for 24 hours followed by the addition of SMIs for another 24 hours as above. Referring now to FIG. 16A, A549 cells were treated sequentially or concurrently with cisplatin (5 μM) and MCI13E or MCI13F for 24 total hours. Lysates were probed for p53-ser15-phosphorylation or phosphorylated-ATM. GAPDH was probed as a loading control. Concurrently treated cells were incubated simultaneously with both cisplatin and MCIs for 24 hours. RNA was extracted using RNeasy minikit (Qiagen, Germantown, Md.) per manufacturer's protocol. cDNA was generated using Applied Biosystem's (ABI) High Capacity RNA-to-cDNA kit. Validated gene primer/probe sets, also from ABI, were used for Quantitative Real Time-PCR. ABI's ΔΔCT Relative Quantification methodology was used for the analyses (applied Biosystems). Data were normalized to the housekeeping gene GAPDH and calibrated to the mock treated samples. Results presented are the average of two separate cell treatments/RNA isolations with duplicate Taqman Assays per RNA sample set. […]

[2] = system: p21; assay: Quantitative real-time PCR of p21 mRNA; format: cell-based; details: A549, versus untreated control
Protocol: Real-Time PCR—A549 cells were plated in 10 cm dishes at 1.5×10^6, allowed to adhere, and treated for 24-48 hours with cisplatin or SMIs (5 μM). Referring now to FIG. 16B, Western blot of cells treated sequentially. For sequential treatment, A549 cells were exposed to cisplatin for 24 hours followed by the addition of SMIs for another 24 hours as above. Referring now to FIG. 16A, A549 cells were treated sequentially or concurrently with cisplatin (5 μM) and MCI13E or MCI13F for 24 total hours. Lysates were probed for p53-ser15-phosphorylation or phosphorylated-ATM. GAPDH was probed as a loading control. Concurrently treated cells were incubated simultaneously with both cisplatin and MCIs for 24 hours. RNA was extracted using RNeasy minikit (Qiagen, Germantown, Md.) per manufacturer's protocol. cDNA was generated using Applied Biosystem's (ABI) High Capacity RNA-to-cDNA kit. Validated gene primer/probe sets, also from ABI, were used for Quantitative Real Time-PCR. ABI's ΔΔCT Relative Quantification methodology was used for the analyses (applied Biosystems). Data were normalized to the housekeeping gene GAPDH and calibrated to the mock treated samples. Results presented are the average of two separate cell treatments/RNA isolations with duplicate Taqman Assays per RNA sample set.
Referring now to FIG. 15A. Plot of Quantitative Real Time PCR analyses of mRNA expression changes of A549 cells treated with MCI13E, MCI13F and Cisplatin. Data represents the average of four separate Q-RT PCR Assays. Genes of interest were normalized to GAPDH transcript levels, and are presented as fold changes relative to untreated cell samples. Cisplatin treatment increases transcription of DDB2 (A). Referring now to FIG. 15B. Bar graph of P21/GAPDH measured in cells subjected to different treatment schemes. Referring now to FIG. 15C. Bar graph of XPC/GAPDH measured under different treatment regimes XPC Concurrent MCI/Cisplatin treated cells show a decrease in gene transcription when compared to cells treated with Cisplatin alone (24 hour).

[3] = target: T1, EcSSB (Escherichia coli, UniProt P0AGE0); assay: E. coli SSB DNA-binding EMSA; details: 0-200 μM, pre-incubated with protein
T1 construct: purchased Enzymatics, Beverly, Mass
T1 sequence (P0AGE0 2-178): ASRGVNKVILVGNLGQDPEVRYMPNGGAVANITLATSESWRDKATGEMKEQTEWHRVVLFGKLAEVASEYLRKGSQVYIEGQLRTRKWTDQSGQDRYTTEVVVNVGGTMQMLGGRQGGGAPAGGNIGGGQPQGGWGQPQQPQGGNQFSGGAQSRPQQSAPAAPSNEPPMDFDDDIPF
Protocol: In order to study the specificity of the CheSS19, and MCI13E/F compounds, their effects on two ssDNA binding proteins which use OB-folds for recognition and binding of ssDNA, E. coli SSB (6) and the Schizosaccharomyces pombe Pot1(DBD) domain (11) were studied. The EcSSB protein is a non-sequence-specific ssDNA binding protein, whereas the SpPot1(DBD) protein is a telomere-specific, ssDNA binding protein. In these experiments, protein was pre-incubated with the SMIs, as was done for the RPA experiments, prior to addition of radiolabeled ssDNA to the reactions.
Referring now to FIG. 6B. CheSS19 titration in EcSSB DNA-binding reactions. CheSS19 (0, 25, 50, 100, and 200 μM) was pre-incubated with EcSSB and binding reactions were carried out. Referring now to FIG. 6C. Titration of MCI13E and MCI13F in EcSSB DNA-binding reactions. Concentrations of MCI13E/F used were: 0, 25, 50, 100, and 200 μM. In all panels, the ‘Free’ ssDNA is indicated with an arrow and the ‘Bound’ ssDNA is indicated by brackets. All reactions were performed in the same order and manner as the RPA binding reactions. EcSSB binding was unaffected by CheSS19 and the MCI13E and MCI13F compounds […].
EMSAs were performed similarly to those for the RPA constructs, with the following exceptions. Reactions contained 25 nM of 5′-[^32P]-labeled 3Pc3 ssDNA and 3.3 nM (assuming homotetramer formation) SSB protein (Enzymatics, Beverly, Mass.). Reactions (20 μL) were carried out in 20 mM HEPES, pH 7.5, 1 mM DTT, 0.01% NP-40, 100 mM NaCl, and resolved by 6% native polyacrylamide gel electrophoresis at 25 mA for 2 hours. Gels were dried and quantified via phosphorimager analysis and ImageQuant software (Molecular Dynamics).

Compound	p53 serine-15 phosphorylation, single agent [1]	p21 mRNA expression, single agent [2]	Effect on EcSSB ssDNA binding [3]
CC1(C)C2CCC1(C)C(OC(=O)CBr)C2 (racemic) [MCI13E, (+/−)-Isobornyl bromoacetate]	minimal single-agent effects on p53 phosphorylation	only slightly increases the expression level of p21	unaffected; also recorded: no significant inhibition
CC1(C)C2CCC1(C)C(OC(=O)CI)C2 (racemic) [MCI13F, (+/−)-Isobornyl iodoacetate]	minimal single-agent effects on p53 phosphorylation	only slightly increases the expression level of p21	unaffected; also recorded: no significant inhibition

Reference: patent publication US9757350B2, “Small molecule inhibitors of replication protein A that also act synergistically with cisplatin” (Indiana University Research and Technology Corp., priority 2010, dated 2017)
